{
  "source": "patent US20150344535A1",
  "about": "“NEUROTROPHIN-TYROSINE KINASE RECEPTOR SIGNALING” (THE UNIVERSITY OF QUEENSLAND, priority 2012, published 2015)",
  "key": {"[1]": {"system": "PC12 cells", "assay": "PC12 cell neurite outgrowth in response to NGF", "format": "cell-based", "conditions": "NGF plus secretase inhibitor over 5 days"}, "[2]": {"system": "PC12 cells", "assay": "PC12 cell neurite outgrowth in response to EGF", "format": "cell-based", "conditions": "EGF plus secretase inhibitor, 5 days", "experimental": "(§1) To assess the effect of p75^NTR constructs (FIG. 2) or c29 peptide on TrkA-mediated neuritogenesis, transfected PC12 cells were grown in the presence of 100 ng/ml NGF for 3 days, with fresh medium and NGF treatments added on day 2. Cells were then imaged live on an Olympus (IX81) microscope fitted with a CO2 atmospheric chamber, using analySIS software. Four random images of 80-100 cells were taken for each treatment condition and images were determined by measuring polygon neurite length of all cells in each image. Data analysis was performed using Graphpad PRISM.\nTo determine whether the effect of the c29 peptide on enhancement of neurite outgrowth was NGF and TrkA specific, we repeated the experiment using EGF to stimulate differentiation."}, "[3]": {"system": "TrkA", "assay": "Biotinylated peptide pull down of TrkA", "format": "binding", "conditions": "TrkA pull downs, FIG. 15F", "experimental": "For peptide pull down assays, the biotinylated c29 or LC1 control peptides were incubated with protein A-sepharose beads or Dynabeads MyOne Streptavidin T1 (Invitrogen) overnight at 4° C. Cell lysates were then added to the peptide-protein A-sepharose complex or Dynabeads MyOne Streptavidin T1 and incubated for 3 hours at 4° C. Peptide-receptor complexes were washed extensively with RIPA lysis buffer and eluted by boiling in Laemmli sample buffer. For p75^NTR construct immunoprecipitations, HEK293 cells were treated with NGF at 50 ng/ml for 10 minutes 48 hours after transfection with 1 μg DNA per well. Cells were immediately harvested in ice-cold phosphate buffered saline (PBS) and washed twice, then lysed in 1 ml of lysis buffer. Cell lysates were pre-cleared in 75 μl (1:2) protein-G sepharose: PBS by rotation end-over-end for 2 hours at 4′C. Lysates were then incubated with 3-5 μg antibody, either mouse-anti-YFP/GFP (Roche) or rabbit-anti-human p75^NTR intracellular domain antibody (Promega), and rotated end-over-end for 2 hours at 4° C.\n(§2) Immunoprecipitation was performed by the addition of 75 μl (1:2) protein-G sepharose: PBS and incubation end-over-end for 16 hours at 4° C. The immunoprecipitate was washed 4 times with 1 ml of PBS then eluted in 60 μl 2×LDS sample buffer. For immunoblotting, samples were boiled for 5 minutes, separated by SDS-PAGE and transferred onto nitrocellulose membranes, then western blotted using standard protocols (see Example 1 for antibodies used).\nThe c29 peptide was labelled with biotin and attached to a sepharose bead column. Lysates from cells was passed over the column followed by several wash steps. The proteins that bound to the c29 peptide (proteins that are pulled down) were eluted from the column with SDS buffer and separated in size by SDS-PAGE electrophoresis. The gel was Western blotted and the membrane probed with antibodies to proteins of interest."}, "[4]": {"system": "PC12 cells", "assay": "PC12 cell neurite outgrowth in response to NGF", "format": "cell-based", "conditions": "for neurite growth: fragments incubated with PC12 cells and NGF, FIG. 16", "experimental": "as §1\nOnce PC12 cells are fully differentiated, they become dependent on NGF for survival (Greene, 1978), but can survive if grown in the presence of lower concentrations of NGF (Greene and Tischler, 1976). To determine if c29 could potentiate TrkA-mediated signals, PC12 cells were cultured in the presence of NGF concentrations ranging from 1-100 ng/ml for 5 days, following serum starvation and pre-incubation with c29, scrambled control peptide or no peptide (FIG. 5A). […] Peptides (1 μM) were added to the cultures every 48 hours at the time of NGF addition and medium exchange."}, "[5]": {"system": "primary E13 motor neurons", "assay": "Primary motor neuron survival and growth factor withdrawal", "format": "cell-based, mouse", "conditions": "1 ng/ml BDNF plus NGF", "protocol": "Briefly, pregnant mothers were sacrificed by cervical dislocation and the uterus removed by Caesarean section and placed in Neurobasal medium. Lumbar spinal cords were dissected from E13 embryos on ice. Batches of 2 or 3 spinal cords were incubated in 1 mL 0.05% trypsin-ETDA for 10 minutes at 37° C. in 15 mL tubes. To prevent further trypsinisation, 0.14 mg/mL trypsin inhibitor solution was added and the tissue centrifuged at 100×g for 7 minutes, without acceleration or deceleration. The supernatant was removed and the spinal cord tissue was resuspended in 1 mL of Neurobasal Medium (NB). In order to obtain a single cell suspension, each batch of 2-3 spinal cords was agitated manually for 2 minutes. The suspension was allowed to settle and the supernatant collected after being filtered through a 100 μm sieve. The remaining tissue was further triturated ˜8 times through a P200 pipette and filtered through a 100 μm sieve. The combined supernatants were then separated by centrifugation on a 5 ml cushion of 9% (vol/vol) OptiPrep® gradient in NB containing 2% B27 supplement for 45 min at 850×g, without acceleration or deceleration. To prevent toxicity following Optiprep® separation, the layer containing MNs was harvested into 10 mL of NB containing 10% HS, and the cell suspension was centrifuged at 900×g for 7 minutes at 24° C., without acceleration or deceleration. The supernatant was removed and the cell pellet was resuspended in 1 mL of NB medium.\nThe number of viable motor neurons was counted on a haemocytometer using 0.08% trypan blue and neurons plated in 4-well culture dishes at a density of 3,000 cells per well in 100 μL NB containing 10% HS. […] Primary motor neurons were maintained at 37° C. in a humidified atmosphere with 5% CO2 and culture medium was replaced at day 1 and 3. Phase contrast images of motor neurons were taken using an Olympus (6IX81) microscope after motor neurons were grown in vitro for up to 7 days.\nTo assess the effects of c29 peptide on motor neuronal survival in limiting growth factor concentrations, isolated spinal motor neurons were plated and treated with 0.01, 0.1 or 1.0 ng/ml of BDNF in the presence of 1 μm PTD4-linked c29 or scrambled peptide, and cultured for 5 days with the addition of fresh BDNF and peptide treatments on day 2 and 4. For growth factor-withdrawal assays, following initial plating in 1 ng/ml of BDNF, CNTF or GDNF, cultures were washed four times with serum-free Neurobasal (NB) medium, after which the medium was replaced with medium containing 1-0.01 ng/ml of BDNF, CNTF or GDNF and 1 μM PTD4-linked c29 or scrambled peptides, as indicated. For assays investigating the effect of c29 on NGF-mediated motor neuron death, cultures were grown in 1 ng/ml BDNF, CNTF or GDNF for 1 day, before being treated with 100 ng/ml 2.5S NGF in and 1 μM PTD4-linked c29 or scrambled peptide, as indicated. Motor neurons were counted on day 1, and to assess the effects of various treatments days 3 and 5 (4 separate 10×10 grid fields of each well per experiment)."}, "[6]": {"system": "p75^FL", "assay": "Production of endogenous p75^CTF or p75^ICD fragments in p75^FL-transfected HEK293 cells", "format": "cell-based", "conditions": "vs untreated cells, data not shown"}, "[7]": {"system": "pErk1/2 and pAkt", "assay": "Western blot of pErk1/2 and pAkt in PC12 cell lysates", "format": "cell-based", "conditions": "absence of NGF, 24 hours", "experimental": "In biochemical experiments, PC12 and HEK293 cells were lysed for 20 minutes on ice in lysis buffer as described by (Ceni et al., 2010). Briefly, the lysis buffer contained 10 mM Tris-HCl, 150 mM NaCl, 2 mM EDTA, 1% (v/v) NP-40, 1% (v/v) TX-100, 10% Glycerol, 1 mM PMSF, 1 mM Sodium Orthovanadate, 1 μM BB94, 1% (v/v) Roche protease inhibitor cocktail and pH 8.0 (Ceni et al., 2010).\nas §2\nThe observed functional effects on neurite outgrowth and survival were next correlated with enhanced activation of signal transduction pathways that mediate the trophic effects of TrkA. Lysates of cells treated for 24 hours with NGF alone or in combination with c29 or scrambled peptide were immunoblotted for pErk1/2 (neurite outgrowth), and the serine/threonine protein kinase Akt (survival). […] Total levels of Erk1/2 or Akt were unaffected by any treatment (FIG. 6 A, B)."}, "[8]": {"system": "PC12 cells", "assay": "NGF-FITC binding by flow cytometry, PC12 cells", "conditions": "NGF-FITC, c.f. PC12", "experimental": "The NGF was conjugated to FITC by standard methods and detailed flow cytometry acquisition and analysis. For NGF-FITC conjugation 400 μg βNGF in 200 μl pH 8.5 NaHCO3 buffer was mixed with 5-10 μl of 10 mg/ml FITC in 100 μl DMSO for 10 hours at 4° C. on an orbital shaker set to 100 rpm. The excess FITC was removed by dialysis against 3 changes of 5 L of 10 mM Tris, 150 mM NaCl, 0.2% acetic acid, pH 8.2 for 24 hours at 4° C. Conjugate F/P characterization was determined by measuring absorbance at 280 nm and 495 nm according to manufacturer's instructions. Biological activity of the NGF-FITC conjugate was tested by performing PC12 cell neurite outgrowth assays unlabelled NGF, and comparing the levels of neuritogenesis. NGF-FITC conjugates were used within 4 weeks of synthesis.\nFor the flow cytometry NGF binding assays, fluorescence cell parameters of at least 20,000 events for PC12 cells and 100,000 events for HEK293 cells were acquired by flow cytometry list mode and measurements were performed on a single cell basis (with compensation for double event counting). Dead cells and debris were gated out of the analysis on the basis of forward scatter fluorescence, and mean, median and maximal fluorescence values of the gated cell populations were analysed using FACS Diva Software (Becton-Dickinson Biosciences) and FACS Express Software (Becton-Dickinson Biosciences).\n(§3) Background fluorescence of HEK293 cells was non-transfected cells (±c29 or scrambled peptide treatment) treated with 26 nM NGF-FITC. For PC12 cells, the control population was cells that had not been treated with NGF-FITC. Analysis of real-time NGF-FITC receptor binding experiments was performed on 550,000-600,000 cells at 4° C. in serum free NB medium and binding kinetics were calculated from raw data files compressed to 50,000 binding events using FlowJo and MatLab Software. Data was plotted with the use of GraphPad Prism.\n(§4) Only NGF-FITC preparations that promoted equivalent neurite outgrowth of PC12 cells to that of unlabelled NGF were used in binding experiments. To investigate NGF binding, PC12 or transfected HEK293 cells were serum starved for 4 hours, harvested, washed with Dulbecco's Modified Eagle Medium (DMEM), and counted. When used, c29 or scrambled peptide were added to cultures for the third hour of the serum starvation procedure. 1×10^7 cells/ml suspended in 500 μl of serum-free DMEM were incubated with 26 nM NGF-FITC on ice for 60 minutes before analysis. For binding competition assays, following 1 hour in NGF-FITC, cells were washed with ice-cold PBS containing 0.1% normal bovine serum and incubated on ice with unlabeled NGF at concentrations ranging from 100 pM to 10 μM for 30 minutes, then washed twice in PBS before being analysed on a BD Flow Cytometer FACS Scan (Becton-Dickinson).\nFirst, to determine the concentration of c29 required to modulate NGF binding, c29 levels were titrated with a fixed concentration of NGF-FITC."}, "[9]": {"system": "TrkA and p75^NTR", "assay": "Surface biotinylation of receptors in PC12 cells", "format": "cell-based", "conditions": "1 μM peptide, with or without NGF", "experimental": "FIG. 10: The juxtamembrane domain of p75^NTR increases the association of NGF to cells expressing TrkA. (A and B) Dose response graphs of the proportion (%) of PC12 cells with fluorescence intensity above background following treatment with 26 […] NGFFITC, a FITC-conjugated antibody to the extracellular domain of p75^NTR (A), or an antibody to TrkA (detected using an anti-rabbit Alexa 594 secondary) (B), after pretreatment with increasing concentrations of […] peptide. (n=3 experiments per data point; mean±SEM *p<0.05, **p<0.01) (C) Representative western blots (WB) of TrkA and p75^NTR present in streptavidin precipitates (surface biotin), or lysate flow through of PC12 cells that had been treated for 1 hour with NGF and/or c29 and scrambled (SC) peptide, prior to the surface proteins being labelled with biotin for 90 minutes on ice."}, "[10]": {"system": "HEK293 cells", "assay": "NGF-FITC binding by flow cytometry, non-transfected HEK293 cells", "experimental": "as §3\nas §4, with “1×10^7 cells/ml suspended in 500 μl of serum-free DMEM were incubated with 26 nM NGF-FITC on ice for 60 minutes before analysis.” left out"}},
  "data": [
    {"molecule": "CC(C)C[C@H](CC(=O)NO)C(=O)N[C@H](C(=O)N[C@@H](C)C(=O)NCCN)C(C)(C)C", "note": "[TAPI-2, N—(R)-(2-(Hydroxyaminocarbonyl)Methyl)-4-Methylpentanoyl-L-t-Butyl-Glycine-L-Alanine 2-Aminoethyl Amide]", "values": [
      {"measurement": "neurite length", "setting": "[1]", "result": 20, "unit": "μm"},
      {"measurement": "PC12 cell differentiation induced by EGF", "setting": "[2]", "result": "neither the α- nor the γ-secretase inhibitor had any significant effect"}
    ]},
    {"molecule": "C[C@H](NC(=O)Cc1cc(F)cc(F)c1)C(=O)N[C@H]1N=C(c2ccccc2)c2ccccc2N(C)C1=O", "note": "[compound E, (S,S)-2-[2-(3,5-Difluorophenyl)-acetylamino]-N-(1-methy-2-oxo-5-phenyl-2,3-dihydro-1H-benzo[e][1,4]diazepin-3-yl)-propionamide]", "values": [
      {"measurement": "neurite length", "setting": "[1]", "result": 20, "unit": "μm"},
      {"measurement": "PC12 cell differentiation induced by EGF", "setting": "[2]", "result": "neither the α- nor the γ-secretase inhibitor had any significant effect"}
    ]},
    {"molecule": "(22-29): truncated peptide fragment of c29, residues 22-29 (PPPEGEKL)", "values": [
      {"measurement": "TrkA binding of biotinylated fragments", "setting": "[3]", "result": "clearly bind TrkA"},
      {"measurement": "neurite growth", "setting": "[4]", "result": "stimulated neurite growth"}
    ]},
    {"molecule": "ARWNSC [c1-6K1A]", "values": [
      {"measurement": "neurite growth", "setting": "[4]", "result": "stimulated neurite growth"}
    ]},
    {"molecule": "KRWASA [c1-6C6A]", "values": [
      {"measurement": "neurite growth", "setting": "[4]", "result": "stimulated neurite growth"}
    ]},
    {"molecule": "KRWASC [c1-6N4A]", "values": [
      {"measurement": "neurite growth", "setting": "[4]", "result": "stimulated neurite growth"}
    ]},
    {"molecule": "KRWNSC (c1-6 - Fragment of p75ICD) [(1-6)]", "values": [
      {"measurement": "TrkA binding of biotinylated fragments", "setting": "[3]", "result": "clearly bind TrkA"},
      {"measurement": "neurite growth", "setting": "[4]", "result": "stimulated neurite growth"}
    ]},
    {"molecule": "KRWNSCKQNKQGAN (c1-14 - Fragment of p75ICD) [(1-14)]", "values": [
      {"measurement": "TrkA binding of biotinylated fragments", "setting": "[3]", "result": "clearly bind TrkA"},
      {"measurement": "neurite growth", "setting": "[4]", "result": "stimulated neurite growth"}
    ]},
    {"molecule": "SKGQVCRNQPGQNKPEPANKSWKETPLRN [SC, randomly scrambled version of c29, reference compound]", "values": [
      {"measurement": "NGF-induced cell death of motor neurons", "setting": "[5]", "result": "no effect"},
      {"measurement": "rate of production of endogenous p75^CTF or p75^ICD fragments", "setting": "[6]", "result": "did not differ significantly"},
      {"measurement": "pAkt signalling", "setting": "[7]", "result": "no effect"},
      {"measurement": "pErk1/2 signalling", "setting": "[7]", "result": "no effect"},
      {"measurement": "% of cell population with FITC above background", "setting": "[8]", "result": "100.3 ± 5.1", "unit": "%"},
      {"measurement": "Maximal fluorescence per cell of the population", "setting": "[8]", "result": "100.4 ± 9.6", "unit": "%"},
      {"measurement": "Mean fluorescence per FITC-positive cell", "setting": "[8]", "result": "95.3 ± 7.4", "unit": "%"},
      {"measurement": "Median population fluorescence", "setting": "[8]", "result": "97.0 ± 3.8", "unit": "%"},
      {"measurement": "surface or total receptor levels of TrkA and p75^NTR", "setting": "[9]", "result": "no significant difference"},
      {"measurement": "median neurite outgrowth", "setting": "[4]; 100 ng/ml NGF, day 5, peptide 1 μM, vs untreated cultures", "result": "no difference"},
      {"measurement": "fluorescence of nontransfected cells incubated with peptide and NGF-FITC", "setting": "[10]", "result": "only background levels of fluorescence"}
    ]},
    {"molecule": "SRPVNQTPPPEGEKL (c15-29 - Fragment of p75ICD) [(15-29)]", "values": [
      {"measurement": "TrkA binding of biotinylated fragments", "setting": "[3]", "result": "clearly bind TrkA"},
      {"measurement": "neurite growth", "setting": "[4]", "result": "stimulated neurite growth"}
    ]}
  ]
}
